{"source": "patent US9567318B2", "about": "“Substituted pyrimidine compounds and uses thereof” (Memorial Sloan-Kettering Cancer Center, priority 2009, dated 2017)", "key": {"HSF-1 in SKBr3 cells": {"tested_on": "HSF-1 in SKBr3 cells", "assay": "Native gel electrophoresis, HSF-1 activation", "format": "cell-based, human", "details": "3 h", "description": "FIG. 6. YK5 inhibits core biochemical functions of Hsp70s and disrupts the Hsp90/Hsp70 interaction. a) Refolding of denatured luciferase by Hsc70 and DJA2 at 30° C. was measured for the indicated times in the presence of YK5 (100 μM) or vehicle (left), or at 60 min in the presence of indicated concentrations of YK5 (right). b) Hsc70 ATPase rates were measured for reactions at 30° C. with the indicated combinations of Hsc70 and co-chaperones in the presence of vehicle (DMSO) or YK5 (100 μM). ADP production was monitored by thin layer chromatography separation of radiolabeled ADP from ATP and phosphorimaging analysis (lower). The data are consistent with those obtained from multiple repeat experiments (n≧2). c,d) SKBr3 cells were treated for 24 h with vehicle or indicated concentrations of YK5 (c) or for the indicated times with YK5 (10 μM) (d). Proteins isolated with anti-Hsp90 and Hsp70s antibodies (IP: Hsp90 or Hsp70), or present in the cell extract (Lysate) were analyzed by WB. Specificity of binding was tested with a control IgG. HC=heavy chain; DJA1 and Hdj1=Hsp40 isoforms. e) Unlike Hsp90 inhibitors, YK5 fails to activate HSF-1. […] Proteins were applied to a native gel and analyzed by immunoblotting. The data are consistent with those obtained from multiple repeat experiments (n≧3). f) YK5 was tested in the scanMAX screen (Ambit) against 359 kinases. […]"}, "Hsc70 and DJA2": {"molecular_target": "T1, Hsc70 and DJA2 (Homo sapiens, UniProt P11142)", "T1 construct": "made in house", "T1 sequence (P11142 whole entry)": "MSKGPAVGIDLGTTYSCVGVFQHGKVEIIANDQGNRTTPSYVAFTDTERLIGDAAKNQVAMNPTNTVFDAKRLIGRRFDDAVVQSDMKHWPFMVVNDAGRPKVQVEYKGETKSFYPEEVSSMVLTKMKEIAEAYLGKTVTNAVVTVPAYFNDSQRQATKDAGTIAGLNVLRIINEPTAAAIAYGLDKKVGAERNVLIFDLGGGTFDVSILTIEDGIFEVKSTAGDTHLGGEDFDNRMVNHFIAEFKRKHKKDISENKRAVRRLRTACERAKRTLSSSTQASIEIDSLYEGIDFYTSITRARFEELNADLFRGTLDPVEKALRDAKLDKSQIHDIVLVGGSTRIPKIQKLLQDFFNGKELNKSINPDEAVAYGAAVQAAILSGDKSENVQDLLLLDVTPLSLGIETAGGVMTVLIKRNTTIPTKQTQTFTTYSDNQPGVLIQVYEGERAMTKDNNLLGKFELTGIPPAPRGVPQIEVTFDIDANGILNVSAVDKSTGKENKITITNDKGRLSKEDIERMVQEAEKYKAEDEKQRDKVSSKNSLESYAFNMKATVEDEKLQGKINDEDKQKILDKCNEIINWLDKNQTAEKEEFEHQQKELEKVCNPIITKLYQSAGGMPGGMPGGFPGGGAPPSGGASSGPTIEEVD", "assay": "Luciferase refolding by Hsc70 and DJA2", "format": "biochemical", "details": "30° C.", "description": "FIG. 6. YK5 inhibits core biochemical functions of Hsp70s and disrupts the Hsp90/Hsp70 interaction. a) Refolding of denatured luciferase by Hsc70 and DJA2 at 30° C. was measured for the indicated times in the presence of YK5 (100 μM) or vehicle (left), or at 60 min in the presence of indicated concentrations of YK5 (right). b) Hsc70 ATPase rates were measured for reactions at 30° C. with the indicated combinations of Hsc70 and co-chaperones in the presence of vehicle (DMSO) or YK5 (100 μM). ADP production was monitored by thin layer chromatography separation of radiolabeled ADP from ATP and phosphorimaging analysis (lower). […] Proteins isolated with anti-Hsp90 and Hsp70s antibodies (IP: Hsp90 or Hsp70), or present in the cell extract (Lysate) were analyzed by WB. […] Proteins were applied to a native gel and analyzed by immunoblotting. […]\nHsc70 ATPase Activity and Luciferase Refolding. Human Hsc70, DJA1/DNAJA1, DJA2/DNAJA2 and Hsp110/Hsp105/HSPH1 were purified and analyzed. […] Samples at time points were terminated with 37.5 mM EDTA and analyzed by thin layer chromatography on polyethylene-imine cellulose (Mallinckrodt Baker) developed in 0.5 M LiCl and 0.5 M formic acid. The ADP produced was determined by image phosphor quantitation and the linear enzymatic rates (Vmax) were calculated by regression analysis. […]"}, "[1]": {"tested_on": "STAT1 in MDA-MB-468 cells", "assay": "Activated STAT1 DNA binding assay (ELISA)", "format": "cell-based, human", "details": "IFNγ 100 ng/ml", "description": "FIG. 19. YK5 enhances the nuclear content of IFNγ activated STAT1 and potentiates its binding to DNA. MDAMB-468 cells were treated with IFNγ (100 ng/ml) or co-treated with IFNγ (100 ng/ml) and YK5 (10 μM). (a) Activated STAT1 (pTyr701), was determined by immunofluorescent microscopy with a secondary antibody conjugated with FITC. Nuclear staining was performed with DAPI. (b) Activated STAT1 binding to STAT consensus binding site (5′-[…]-3′) was determined by an ELISA-based assay. Activated STAT1, contained in lysates from untreated (white bar), treated with YK5 (light grey bar), IFNγ (dark grey bars) or the combination of IFNγ and YK5 (black bars) cells, and bound to the oligonucleotide, was detected through use of an anti-STAT1 antibody. Assays were performed in the absence or presence of 20 pmol of competitor oligonucleotide that contains either a wild-type or a mutated STAT consensus binding site using IFNγ-treated cells (dark grey bars). […] Results are expressed as mean absorbance values (OD450 nm) with SEM.\nActivated STAT1 DNA binding assay. […] After HRP substrate addition, absorbance was read at 450 nm with a reference wavelength of 655 nm (Synergy4, Biotek, Winooski, Vt.). In this assay the absorbance is directly proportional to the quantity of DNA-bound transcription factor present in the sample. […] Results were expressed as mean absorbance values with SEM. […]"}}, "data": [{"smiles": "C=CC(=O)Nc1cc(N)nc(Sc2c(OC)nc(N3CCN(C)CC3)nc2OC)n1", "note": "[YK5, N-(6-amino-2-(4,6-dimethoxy-2-(4-methylpiperazin-1-yl)pyrimidin-5-ylthio)pyrimidin-4-yl)acrylamide]", "values": [{"measurement": "HSF-1 activation", "setting": "HSF-1 in SKBr3 cells", "value": "no effect"}, {"measurement": "refolding of luciferase by purified Hsc70 and DJA2", "setting": "Hsc70 and DJA2", "value": "dose-dependently inhibited the refolding of luciferase"}, {"measurement": "DNA-binding efficacy of activated STAT1", "setting": "[1]", "value": "increased its DNA-binding efficacy"}]}]}
